# Laboratory results reported in EP4316482A1, “LEVODOPA FOR PREVENTING ADDICTION” (4P-Pharma, priority 2022, dated 2024).
# Legend:
# Assay type in all cases: in vivo
# C57B1/6J mice [1] = experiment: Observation of mice activity: methylphenidate-induced hyperactivity (Example 1); settings: male mice, IP, methylphenidate 10 mg/kg, levodopa 17 mg/kg, 5 minutes session 15 minutes after treatment, Mean ± SEM, n=6; for horizontal activity: line crossings; for vertical activity: rearing or climbing
# Protocol: • Species / Strain: Mice / C57B1/6J • Gender / Number / Age: Male / 24 / 8 weeks at study initiation • Source: Janvier Labs, France
# The Test items and vehicle were administered via intraperitoneal injections according to Table 2. Table 2 - Study design
# (§1) Mice were subj ected to a behavioral test to evaluate their activity 15 minutes after treatment administration (5 minutes session). Mice were acclimated to the surrounding for 15 minutes before the beginning of the test. At the appropriate time after treatment administration, mice (1 per cage) were placed in the middle of a polyethylene cage measuring 17 × 32 × 14 cm without stainless steel top grill (no access to food or drinking water), without bedding and with a line drawn at the bottom of the cage. Activity was then monitored during 5 minutes session at 15 minutes after treatment administration, measuring different parameters: • Horizontal activity: the number of times the mice crossed the line drawn at the bottom of the cage during the session was recorded to assess horizontal activity levels. • Vertical activity: the number of rearing or climbing was recorded to assess vertical activity levels.
# C57B1/6J mice [2] = experiment: Hyperactivity and behavioral sensitization induced by methylphenidate: distance travelled in drug sessions (Example 3); settings: male mice, IP; methylphenidate 3 mg/kg, levodopa (carbidopa) 8,5(0,85) or 17(1,7) mg/kg; four 30 minutes drug sessions; n=9
# Protocol: • Species / Strain: Mice / C57B1/6J • Gender / Number / Age: Male / 36 / 6-8 weeks at study initiation • Source: Janvier Labs, France
# The Test items and vehicle were administered via intraperitoneal injections according to Table 4. Table 4 - Study design
# Mice were subj ected to a behavioral test to evaluate their activity 30 minutes after treatment administration. Mice received an administration of vehicle and were placed in the apparatus (20 cm wide, 40 cm large, 40 cm high) for the habituation session (30 minutes). After, 4 drug sessions were performed on days 2, 4, 8 and 10 or on days 3, 5, 9 and 11. Mice were injected with one of the tested drugs (or vehicle) immediately before being placed in the box. Mice activity was then monitored during 30 minutes session after treatment administration, measuring: distance travelled in the compartment in the four sessions.
# C57B1/6J mice [3] = experiment: Behavioral sensitization test for methylphenidate addiction/dependence (Example 4); settings: methylphenidate 10 mg/kg, Mean ± SEM; for locomotor activity (total distance travelled) / horizontal activity: female and male mice, IP, levodopa/carbidopa 17/1.7 mg/kg; for locomotor activity (total distance travelled): 20 minutes session; for horizontal activity: line crossings
# Protocol: • Species / Strain: Mice / C57B1/6J • Gender / Number / Age: Male / 30 / 9 weeks at study initiation and Female / 35 / 9 weeks at study initiation • Source: Janvier Labs, France
# The Test items and vehicle were administered via intraperitoneal injections according to Table 5. Table 5 - Study design
# Mice were subjected to a behavioral test to evaluate their activity after treatment or vehicle administration. Mice (1 per cage) were placed in the center of a polyethylene cage without stainless steel top grill (no access to food or drinking water), without bedding and with a line drawn at the bottom of the cage. First, mice were acclimated to the surrounding and video-recorded for 10 minutes before the beginning of the test to analyse the baseline motor activity (total distance travelled). Second, mice were injected with test item or vehicle and acclimated for another 5 minutes and activity was again monitored and video recorded during a 20 minutes session. The 10 minutes video containing basal activity and the 20 minutes video after treatment administration were analysed using the ezTracker-master software. Horizontal activity was also measured. It represents the number of times the mice crossed the line drawn at the bottom of the cage. Animals are submitted to 6 sessions (3 sessions/week on Monday, Wednesday and Friday). During session 1, all mice receive an administration of vehicle. During sessions 2-5, groups 1F/1M receive an injection of vehicle; groups 2F/2M receive methylphenidate injection, groups 3F/3M receive levodopa/carbidopa injection and groups 4F/4M receive levodopa/carbidopa and methylphenidate injections. And during session 6, all mice receive an administration of methylphenidate.
# C57B1/6J mice [4] = experiment: Observation of mice activity: methylphenidate-induced hyperactivity, levodopa/carbidopa (Example 2); settings: male mice, IP, methylphenidate 20 mg/kg, levodopa (carbidopa) 17(1,7) mg/kg, 5 minutes session 15 minutes after treatment, Mean ± SEM, n=6
# Protocol: • Species / Strain: Mice / C57B1/6J • Gender / Number / Age: Male / 24 / 9 weeks at study initiation • Source: Janvier Labs, France
# The Test items and vehicle were administered via intraperitoneal injections according to Table 3. Table 3 - Study design
# as §1
# [5] = day 3, development of behavioral sensitization
# [6] = day 10, development of behavioral sensitization
smiles,measurement,setting,value
"N[C@@H](Cc1ccc(O)c(O)c1)C(=O)O [levodopa, L-3,4-dihydroxyphenylalanine]",horizontal activity,C57B1/6J mice [1],17±4 counts
same,vertical activity,C57B1/6J mice [1],24±7 counts
"COC(=O)C(c1ccccc1)C1CCCCN1 (stereo not drawn) [methylphenidate, Methylphenidate]",distance travelled during drug sessions,C57B1/6J mice [2],increased the distance travelled during drug sessions compared to vehicle-treated group
same,locomotor activity (total distance travelled),C57B1/6J mice [3]; [5],"127,39±38,76 meters"
same,horizontal activity,C57B1/6J mice [3]; [5],"259,69±115,51 counts"
same,locomotor activity (total distance travelled),C57B1/6J mice [3]; [6],"185,70±41,44 meters"
same,horizontal activity,C57B1/6J mice [3]; [6],"420,38±137,05 counts"
same,locomotor activity before treatment administration (baseline motor activity),"C57B1/6J mice [3]; experimental day 12, 10 minutes baseline session before injection, after chronic treatment, levodopa/carbidopa 17/1.7 mg/kg IP","28,35±7,43 meters"
same,horizontal activity,C57B1/6J mice [1],49±11 counts
same,vertical activity,C57B1/6J mice [1],42±16 counts
same,horizontal activity,C57B1/6J mice [4]; line crossings,62±24 counts
same,vertical activity,C57B1/6J mice [4]; rearing or climbing,59±10 counts
